This is an account of results in patent US20260167620A1, “MULTIFUNCTIONAL COMPOUND CAPABLE OF DEGRADING BTK KINASE, AND COMPOSITION AND USE” (HANGZHOU HEALZEN THERAPEUTICS CO., LTD., priority 2021, published 2026).

T1 sequence (Q06187 whole entry): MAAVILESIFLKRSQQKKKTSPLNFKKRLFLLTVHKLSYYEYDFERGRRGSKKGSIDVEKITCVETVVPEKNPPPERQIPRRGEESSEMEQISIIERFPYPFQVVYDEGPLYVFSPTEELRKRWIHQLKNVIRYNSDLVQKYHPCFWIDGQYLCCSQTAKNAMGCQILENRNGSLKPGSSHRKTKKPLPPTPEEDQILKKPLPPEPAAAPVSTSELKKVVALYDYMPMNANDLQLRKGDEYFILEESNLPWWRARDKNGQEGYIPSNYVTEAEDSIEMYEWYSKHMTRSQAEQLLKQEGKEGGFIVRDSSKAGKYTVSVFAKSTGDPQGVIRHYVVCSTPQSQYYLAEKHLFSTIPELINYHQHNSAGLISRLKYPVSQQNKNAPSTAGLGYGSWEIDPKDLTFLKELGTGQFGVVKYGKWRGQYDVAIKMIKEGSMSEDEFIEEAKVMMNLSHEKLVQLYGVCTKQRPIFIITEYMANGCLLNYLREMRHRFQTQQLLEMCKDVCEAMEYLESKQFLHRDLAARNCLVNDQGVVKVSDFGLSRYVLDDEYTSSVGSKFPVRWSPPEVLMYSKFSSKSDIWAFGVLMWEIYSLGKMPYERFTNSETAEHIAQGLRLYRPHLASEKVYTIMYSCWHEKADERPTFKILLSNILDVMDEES

The experiment has as its target T1, BTK (Homo sapiens, UniProt Q06187).
T1 construct: endogenous in cells; host or cells: Mino cells
The experiment can be described thus: BTK degradation activity test in Mino cells (Westernblot or Elisa). Type of experiment: cell-based. The conditions noted are these: 24-72 h incubation. On the procedure: The Mino cell line cells are 0.5˜1 million/well in 6-well plates. The compounds are diluted to different concentrations, added to the plate, and after 24-72 h of incubation, the cells are collected. After the cells were lysed, the total protein concentration in each well was determined with a BCA kit. The amount of BTK is determined using the Westernblot or Elisa method.
By DC50 is commonly meant the concentration giving 50% degradation. Low readings indicate degradation at low concentration, high ones degradation only at high concentration. In turn, `NC(=O)c1nnc(N2CCCCC2)nc1Nc1ccc(N2CCN(CC3CN(c4ccc5c(c4)C(=O)N(C4CCC(=O)NC4=O)C5=O)C3)CC2)cc1` (stereo not drawn) [Compound 006, 5-((4-(4-((1-(2-(2,6-dioxopiperidin-3-yl)-1,3-dioxoisoindolin-5-yl)azetidin-3-yl)methyl)piperazin-1-yl)phenyl)amino)-3-(piperidin-1-yl)-1,2,4-triazine-6-carboxamide] showed a half-maximal degradation concentration (DC50) of less than 10 nM.
Take `NC(=O)c1nnc(N2CCCCC2)nc1Nc1ccc(C2CCN(CC3CN(c4ccc5c(c4)C(=O)N(C4CCC(=O)NC4=O)C5=O)C3)CC2)cc1` (stereo not drawn) [Compound 008, 5-((4-(1-((1-(2-(2,6-dioxopiperidin-3-yl)-1,3-dioxoisoindolin-5-yl)azetidin-3-yl)methyl)piperidin-4-yl)phenyl)amino)-3-(piperidin-1-yl)-1,2,4-triazine-6-carboxamide]: the DC50 was less than 10 nM.
For `NC(=O)c1nnc(N2CCCCC2)nc1Nc1ccc(C2CCN(CC3CCN(c4ccc5c(c4)CN(C4CCC(=O)NC4=O)C5=O)C3)CC2)cc1` (stereo not drawn) [Compound 009, 5-((4-(1-((1-(2-(2,6-dioxopiperidin-3-yl)-1-oxoisoindolin-5-yl)pyrrolidin-3-yl)methyl)piperidin-4-yl)phenyl)amino)-3-(piperidin-1-yl)-1,2,4-triazine-6-carboxamide] the value was less than 10 nM; for `NC(=O)c1nnc(N2CCCCC2)nc1Nc1ccc(C2CCN(CC3CCN(c4cc5c(cc4F)C(=O)N(C4CCC(=O)NC4=O)C5)C3)CC2)cc1` (stereo not drawn) [Compound 010, 5-((4-(1-((1-(2-(2,6-dioxopiperidin-3-yl)-6-fluoro-1-oxoisoindolin-5-yl)pyrrolidin-3-yl)methyl)piperidin-4-yl)phenyl)amino)-3-(piperidin-1-yl)-1,2,4-triazine-6-carboxamide], less than 10 nM.
Compound `NC(=O)c1nnc(N2CCC[C@@H](O)C2)nc1Nc1ccc(C2CCN(CC3CCN(c4ccc5c(c4)C(=O)N(C4CCC(=O)NC4=O)C5=O)C3)CC2)cc1` (stereo partly drawn) [Compound 015, 5-((4-(1-((1-(2-(2,6-dioxopiperidin-3-yl)-1,3-dioxoisoindolin-5-yl)pyrrolidin-3-yl)methyl)piperidin-4-yl)phenyl)amino)-3-((R)-3-hydroxypiperidin-1-yl)-1,2,4-triazine-6-carboxamide] displayed a half-maximal degradation concentration (DC50) of less than 10 nM.
For `CC[C@H](Nc1nnc(C(N)=O)c(Nc2ccc(C3CCN(CC4CCN(c5ccc6c(c5)C(=O)N(C5CCC(=O)NC5=O)C6=O)C4)CC3)cc2)n1)C(N)=O` (stereo partly drawn) [Compound 017, 3-(((S)-1-amino-1-oxobutan-2-yl)amino)-5-((4-(1-((1-(2-(2,6-dioxopiperidin-3-yl)-1,3-dioxoisoindolin-5-yl)pyrrolidin-3-yl)methyl)piperidin-4-yl)phenyl)amino)-1,2,4-triazine-6-carboxamide] the value was less than 10 nM; for `CN1CCN(c2nnc(C(N)=O)c(Nc3ccc(C4CCN(CC5CCN(c6ccc7c(c6)C(=O)N(C6CCC(=O)NC6=O)C7=O)C5)CC4)cc3)n2)CC1` (stereo not drawn) [Compound 018, 5-((4-(1-((1-(2-(2,6-dioxopiperidin-3-yl)-1,3-dioxoisoindolin-5-yl)pyrrolidin-3-yl)methyl)piperidin-4-yl)phenyl)amino)-3-(4-methylpiperazin-1-yl)-1,2,4-triazine-6-carboxamide], less than 10 nM.
For the compound `N#Cc1cccc(Nc2nnc(C(N)=O)c(Nc3ccc(C4CCN(CC5CCN(c6ccc7c(c6)C(=O)N(C6CCC(=O)NC6=O)C7=O)C5)CC4)cc3)n2)c1` (stereo not drawn) [Compound 020, 3-((3-cyanophenyl)amino)-5-((4-(1-((1-(2-(2,6-dioxopiperidin-3-yl)-1,3-dioxoisoindolin-5-yl)pyrrolidin-3-yl)methyl)piperidin-4-yl)phenyl)amino)-1,2,4-triazine-6-carboxamide], the DC50 was less than 10 nM.
In turn, `NC(=O)c1nnc(Nc2ccccn2)nc1Nc1ccc(C2CCN(CC3CCN(c4ccc5c(c4)C(=O)N(C4CCC(=O)NC4=O)C5=O)C3)CC2)cc1` (stereo not drawn) [Compound 021, 5-((4-(1-((1-(2-(2,6-dioxopiperidin-3-yl)-1,3-dioxoisoindolin-5-yl)pyrrolidin-3-yl)methyl)piperidin-4-yl)phenyl)amino)-3-(pyridin-2-ylamino)-1,2,4-triazine-6-carboxamide] had a half-maximal degradation concentration (DC50) of less than 10 nM.
For `NC(=O)c1nnc(N2CC[C@@H](O)C2)nc1Nc1ccc(C2CCN(CC3CCN(c4ccc5c(c4)C(=O)N(C4CCC(=O)NC4=O)C5=O)C3)CC2)cc1` (stereo partly drawn) [Compound 022, 5-((4-(1-((1-(2-(2,6-dioxopiperidin-3-yl)-1,3-dioxoisoindolin-5-yl)pyrrolidin-3-yl)methyl)piperidin-4-yl)phenyl)amino)-3-((R)-3-hydroxypyrrolidin-1-yl)-1,2,4-triazine-6-carboxamide] the value was less than 10 nM.
The same measure for `NC(=O)c1nnc(-c2nccs2)nc1Nc1ccc(C2CCN(CC3CCN(c4ccc5c(c4)C(=O)N(C4CCC(=O)NC4=O)C5=O)C3)CC2)cc1` (stereo not drawn) [Compound 024, 5-((4-(1-((1-(2-(2,6-dioxopiperidin-3-yl)-1,3-dioxoisoindolin-5-yl)pyrrolidin-3-yl)methyl)piperidin-4-yl)phenyl)amino)-3-(thiazol-2-yl)-1,2,4-triazine-6-carboxamide]: less than 10 nM.
The same measure for `NC(=O)c1nnc(-c2ncc[nH]2)nc1Nc1ccc(C2CCN(CC3CCN(c4ccc5c(c4)C(=O)N(C4CCC(=O)NC4=O)C5=O)C3)CC2)cc1` (stereo not drawn) [Compound 025, 5-((4-(1-((1-(2-(2,6-dioxopiperidin-3-yl)-1,3-dioxoisoindolin-5-yl)pyrrolidin-3-yl)methyl)piperidin-4-yl)phenyl)amino)-3-(1H-imidazol-2-yl)-1,2,4-triazine-6-carboxamide]: less than 10 nM; for `NC(=O)c1nnc(-c2cccnc2)nc1Nc1ccc(C2CCN(CC3CCN(c4ccc5c(c4)C(=O)N(C4CCC(=O)NC4=O)C5=O)C3)CC2)cc1` (stereo not drawn) [Compound 026, 5-((4-(1-((1-(2-(2,6-dioxopiperidin-3-yl)-1,3-dioxoisoindolin-5-yl)pyrrolidin-3-yl)methyl)piperidin-4-yl)phenyl)amino)-3-(pyridin-3-yl)-1,2,4-triazine-6-carboxamide]: less than 10 nM; for `NC(=O)c1nnc(Oc2cccc(O)c2)nc1Nc1ccc(C2CCN(CC3CCN(c4ccc5c(c4)C(=O)N(C4CCC(=O)NC4=O)C5=O)C3)CC2)cc1` (stereo not drawn) [Compound 027, 5-((4-(m-((1-(2-(2,6-dioxopiperidin-3-yl)-1,3-dioxoisoindolin-5-yl)pyrrolidin-3-yl)methyl)piperidin-4-yl)phenyl)amino)-3-(3-hydroxyphenoxy)-1,2,4-triazine-6-carboxamide]: less than 10 nM.
`NC(=O)c1nnc(Oc2cccc(F)c2F)nc1Nc1ccc(C2CCN(CC3CCN(c4ccc5c(c4)C(=O)N(C4CCC(=O)NC4=O)C5=O)C3)CC2)cc1` (stereo not drawn) [Compound 028, 3-(2,3-difluorophenoxy)-5-((4-(1-((1-(2-(2,6-dioxopiperidin-3-yl)-1,3-dioxoisoindolin-5-yl)pyrrolidin-3-yl)methyl)piperidin-4-yl)phenyl)amino)-1,2,4-triazine-6-carboxamide] registered a half-maximal degradation concentration (DC50) of less than 10 nM.
Compound `NC(=O)c1nnc(N2CCC[C@@H](N)C2)nc1Nc1ccc(C2CCN(CC3CCN(c4ccc5c(c4)C(=O)N(C4CCC(=O)NC4=O)C5=O)C3)CC2)cc1` (stereo partly drawn) [Compound 029, 3-((R)-3-aminopiperidin-1-yl)-5-((4-(1-((1-(2-(2,6-dioxopiperidin-3-yl)-1,3-dioxoisoindolin-5-yl)pyrrolidin-3-yl)methyl)piperidin-4-yl)phenyl)amino)-1,2,4-triazine-6-carboxamide] gave a half-maximal degradation concentration (DC50) of less than 10 nM.
For `NC(=O)c1nnc(N[C@H]2CCCC[C@H]2N)nc1Nc1ccc(C2CCN(CC3CCN(c4ccc5c(c4)C(=O)N(C4CCC(=O)NC4=O)C5=O)C3)CC2)cc1` (stereo partly drawn) [Compound 030, 3-(((1S,2R)-2-aminocyclohexyl)amino)-5-((4-(1-((1-(2-(2,6-dioxopiperidin-3-yl)-1,3-dioxoisoindolin-5-yl)pyrrolidin-3-yl)methyl)piperidin-4-yl)phenyl)amino)-1,2,4-triazine-6-carboxamide] the value was less than 10 nM; for `NC(=O)c1nnc(N2CCNCC2)nc1Nc1ccc(C2CCN(CC3CCN(c4ccc5c(c4)C(=O)N(C4CCC(=O)NC4=O)C5=O)C3)CC2)cc1` (stereo not drawn) [Compound 031, 5-((4-(1-((1-(2-(2,6-dioxopiperidin-3-yl)-1,3-dioxoisoindolin-5-yl)pyrrolidin-3-yl)methyl)piperidin-4-yl)phenyl)amino)-3-(piperazin-1-yl)-1,2,4-triazine-6-carboxamide], less than 10 nM.
For `NC(=O)c1cnc(N[C@H]2CCCC[C@H]2N)nc1Nc1ccc(C2CCN(CC3CCN(c4ccc5c(c4)C(=O)N(C4CCC(=O)NC4=O)C5=O)C3)CC2)cc1` (stereo partly drawn) [Compound 032, 2-(((1S,2R)-2-aminocyclohexyl)amino)-4-((4-(1-((1-(2-(2,6-dioxopiperidin-3-yl)-1,3-dioxoisoindolin-5-yl)pyrrolidin-3-yl)methyl)piperidin-4-yl)phenyl)amino) pyrimidine-5-carboxamide] the value was less than 10 nM.
The same measure for `NC(=O)c1cnc(N2CCCCC2)nc1Nc1ccc(N2CCN(CC3CCN(c4ccc5c(c4)C(=O)N(C4CCC(=O)NC4=O)C5=O)C3)CC2)c(F)c1` (stereo not drawn) [Compound 034, 4-((4-(4-((1-(2-(2,6-dioxopiperidin-3-yl)-1,3-dioxoisoindolin-5-yl)pyrrolidin-3-yl)methyl)piperazin-1-yl)-3-fluorophenyl)amino)-2-(piperidin-1-yl) pyrimidine-5-carboxamide]: less than 10 nM; for `NC(=O)c1cnc(N2CCC[C@@H](O)C2)nc1Nc1ccc(C2CCN(CC3CCN(c4ccc5c(c4)C(=O)N(C4CCC(=O)NC4=O)C5=O)C3)CC2)cc1` (stereo partly drawn) [Compound 035, 4-((4-(1-((1-(2-(2,6-dioxopiperidin-3-yl)-1,3-dioxoisoindolin-5-yl)pyrrolidin-3-yl)methyl)piperidin-4-yl)phenyl)amino)-2-((R)-3-hydroxypiperidin-1-yl) pyrimidine-5-carboxamide]: less than 10 nM.
